Structures are written as SMILES. Like-named read-outs stand apart in the source and are kept apart here. Positions of bridges follow the written chain, without caps; N, C: chain ends. Non-standard residues stand in square brackets, D forms with d. Residues, ends and D or L forms follow the SMILES beside them. *: point of attachment. X1 = O=C(CN1CCN(CCO)CC1)*

Consider eight compounds from patent US5968903A, “Inhibition of H. pylori proliferation” (Biomeasure, Incorporated, priority 1998, dated 1999).

For one assay, the target named is human SSTR-3 (Homo sapiens, UniProt P32745). The assay is described as follows: Somatostatin receptor binding assay, hSSTR-3.
Sequence of human SSTR-3 (P32745 whole entry): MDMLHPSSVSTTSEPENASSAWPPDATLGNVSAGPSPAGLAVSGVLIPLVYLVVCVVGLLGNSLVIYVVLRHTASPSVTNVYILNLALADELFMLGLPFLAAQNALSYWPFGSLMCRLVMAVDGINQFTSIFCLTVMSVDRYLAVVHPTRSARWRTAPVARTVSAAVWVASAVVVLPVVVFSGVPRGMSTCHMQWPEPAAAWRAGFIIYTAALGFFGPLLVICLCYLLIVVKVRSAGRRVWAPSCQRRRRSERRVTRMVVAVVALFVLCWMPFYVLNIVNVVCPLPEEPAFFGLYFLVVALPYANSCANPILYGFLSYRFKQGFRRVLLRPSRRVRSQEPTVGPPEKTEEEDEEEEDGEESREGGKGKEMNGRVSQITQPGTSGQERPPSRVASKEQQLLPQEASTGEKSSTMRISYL
A further assay concerns the target human SSTR-2 (Homo sapiens, UniProt P30874). The assay is described as follows: Somatostatin receptor binding assay, hSSTR-2.
For another assay, the target named is human SSTR-1 (Homo sapiens, UniProt P30872). As to the kind of experiment: Somatostatin receptor binding assay, hSSTR-1.
Sequence of human SSTR-1 (P30872 whole entry): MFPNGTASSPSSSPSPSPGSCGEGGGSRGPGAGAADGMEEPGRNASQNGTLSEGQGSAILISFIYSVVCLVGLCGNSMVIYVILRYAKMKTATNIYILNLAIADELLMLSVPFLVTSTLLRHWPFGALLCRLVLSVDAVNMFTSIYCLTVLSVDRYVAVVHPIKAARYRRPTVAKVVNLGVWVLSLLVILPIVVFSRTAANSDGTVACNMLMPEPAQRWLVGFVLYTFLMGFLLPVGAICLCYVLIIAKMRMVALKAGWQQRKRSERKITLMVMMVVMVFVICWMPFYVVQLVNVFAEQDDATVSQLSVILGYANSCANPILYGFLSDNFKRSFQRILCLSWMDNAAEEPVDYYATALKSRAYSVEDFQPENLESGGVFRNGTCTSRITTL
Assay [1] has as its system H. pylori ATCC43504. As to the kind of experiment: H. pylori proliferation in Brucella broth, strain ATCC43504. It is filed as cell-based. Particulars: for ATCC43504 bacteria number: 10^-11 mol/L, 48 h.
A further assay concerns the target human SSTR-5 (Homo sapiens, UniProt P35346). As to the kind of experiment: Somatostatin receptor binding assay, hSSTR-5.
The target in a further assay is human SSTR-4 (Homo sapiens, UniProt P31391). The assay is described as follows: Somatostatin receptor binding assay, hSSTR-4.
Sequence of human SSTR-4 (P31391 whole entry): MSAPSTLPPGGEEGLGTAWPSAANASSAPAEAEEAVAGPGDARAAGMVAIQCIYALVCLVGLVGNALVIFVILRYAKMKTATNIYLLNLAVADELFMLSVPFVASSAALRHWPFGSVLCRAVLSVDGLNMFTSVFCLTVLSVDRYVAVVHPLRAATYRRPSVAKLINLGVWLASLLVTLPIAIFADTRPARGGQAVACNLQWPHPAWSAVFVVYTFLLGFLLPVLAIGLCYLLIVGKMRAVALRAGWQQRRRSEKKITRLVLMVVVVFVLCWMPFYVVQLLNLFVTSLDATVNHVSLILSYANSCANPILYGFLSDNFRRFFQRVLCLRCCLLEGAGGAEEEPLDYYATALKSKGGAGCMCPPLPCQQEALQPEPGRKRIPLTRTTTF
The test system of assay [2] is H. pylori ATCC43504. As to conditions: ATCC43504, 48 h.
Where [3] appears, read: [125I-Tyr11]somatostatin-14, CHO-K1 membranes.
Where [4] appears, read: [125I-Tyr11]somatostatin-14, CHO-K1 membranes, read-out: Ki hSSTR-3.
The mark [5] stands for this setting: [125I-Tyr11]somatostatin-14, CHO-K1 membranes, read-out: Ki hSSTR-2.
The mark [6] stands for this setting: [125I-Tyr11]somatostatin-14, CHO-K1 membranes, read-out: Ki hSSTR-1.

Sequence of human SSTR-2 (P30874 whole entry): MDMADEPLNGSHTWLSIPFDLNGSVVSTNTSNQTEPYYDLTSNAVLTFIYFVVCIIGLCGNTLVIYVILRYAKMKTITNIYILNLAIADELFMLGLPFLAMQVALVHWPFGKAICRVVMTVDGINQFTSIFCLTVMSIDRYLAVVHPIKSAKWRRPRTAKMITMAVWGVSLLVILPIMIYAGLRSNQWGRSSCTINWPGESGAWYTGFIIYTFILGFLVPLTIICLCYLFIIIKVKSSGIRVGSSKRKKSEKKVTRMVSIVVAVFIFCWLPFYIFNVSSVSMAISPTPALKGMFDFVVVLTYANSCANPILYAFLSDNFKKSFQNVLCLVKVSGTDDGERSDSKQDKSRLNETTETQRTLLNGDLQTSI
Sequence of human SSTR-5 (P35346 whole entry): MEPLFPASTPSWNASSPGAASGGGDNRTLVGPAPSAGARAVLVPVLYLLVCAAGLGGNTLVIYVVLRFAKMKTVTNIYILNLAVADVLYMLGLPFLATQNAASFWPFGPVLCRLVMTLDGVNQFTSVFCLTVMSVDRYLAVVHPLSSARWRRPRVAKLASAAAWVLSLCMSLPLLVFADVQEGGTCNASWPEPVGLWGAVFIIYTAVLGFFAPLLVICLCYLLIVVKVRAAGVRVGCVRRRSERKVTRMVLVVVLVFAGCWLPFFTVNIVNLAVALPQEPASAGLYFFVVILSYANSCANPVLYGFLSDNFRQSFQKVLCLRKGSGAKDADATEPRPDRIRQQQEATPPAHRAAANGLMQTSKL

Broadly, the Ki is the dissociation constant of the complex between target and ligand, obtained from inhibition or displacement. Consider `C[C@@H](O)[C@H](NC(=O)[C@@H]1CSSC[C@H](NC(=O)[C@H](N)Cc2ccc3ccccc3c2)C(=O)N[C@@H](Cc2ccc(O)cc2)C(=O)N[C@H](Cc2c[nH]c3ccccc23)C(=O)N[C@@H](CCCCN)C(=O)N[C@@H]([C@@H](C)O)C(=O)N1)C(N)=O` [Example 1, H-D-β-Nal-Cys-Tyr-D-Trp-Lys-Thr-Cys-Thr-NH2], for which the Ki on human SSTR-3 was found to be 97.9 nM; on human SSTR-2, 0.75 nM; at human SSTR-1, 2410 nM.

For the compound `CC(C)[C@@H]1NC(=O)[C@H](CCCCN)NC(=O)[C@@H](Cc2c[nH]c3ccccc23)NC(=O)[C@H](Cc2ccc(O)cc2)NC(=O)[C@H](C)N(C)C(=O)[C@H](Cc2ccccc2)NC1=O` [Example 76, cyclo(N-Me-Ala-Tyr-D-Trp-Lys-Val-Phe)], the “affinity for type 2 (in words)” value at human SSTR-2 is on record as “high affinity”. The ATCC43504 bacteria number in the assay with H. pylori ATCC43504 [1] is on record as 2.7 ± 1.3 ×10^5 CFU/mL.

Take `C[C@@H](O)[C@@H]1NC(=O)[C@H](CCCCN)NC(=O)[C@@H](Cc2c[nH]c3ccccc23)NC(=O)[C@H](Cc2ccccc2)NC(=O)[C@H](Cc2ccccc2)NC(=O)[C@@H](N)CSSC[C@@H](C(N)=O)NC(=O)[C@H](Cc2ccccc2)NC1=O` [Example 107, H-Cys-Phe-Phe-D-Trp-Lys-Thr-Phe-Cys-NH2] (H-CFF[dW]KTFC-NH2; disulfide 1-8 (inferred)): the “affinity for type 5 (in words)” value on human SSTR-5 was “high affinity”. Moreover, the “affinity for type 3 (in words)” value at human SSTR-3 is given as “some affinity”. The ATCC43504 bacteria number with H. pylori ATCC43504 [1] was 6.5 ± 0.7 ×10^5 CFU/mL. On human SSTR-1, the “affinity for type 1 (in words)” value is on record as “some affinity”.

With `NCCCC[C@@H]1NC(=O)[C@@H](Cc2c[nH]c3ccccc23)NC(=O)[C@H](Cc2ccccc2)NC(=O)[C@H](Cc2ccccc2)NC(=O)[C@@H](N)CSSC[C@@H](C(N)=O)NC(=O)[C@H](Cc2ccccc2)NC(=O)[C@H](CO)NC1=O` [Example 108, H-Cys-Phe-Phe-D-Trp-Lys-Ser-Phe-Cys-NH2] (H-CFF[dW]KSFC-NH2; disulfide 1-8 (inferred)), the Ki worked out at 0.85 nM on human SSTR-5 (setting [3]), 35.6 nM on human SSTR-3 (setting [4]), 19.3 nM on human SSTR-2 (setting [5]) and 27.9 nM at human SSTR-1 (setting [6]).

Consider `C[C@@H](O)[C@@H]1NC(=O)[C@H](CCCCN)NC(=O)[C@@H](Cc2c[nH]c3ccccc23)NC(=O)[C@H](Cc2ccc(O)cc2)NC(=O)[C@H](Cc2ccccc2)NC(=O)[C@@H](N)CSSC[C@@H](C(N)=O)NC(=O)[C@H](Cc2ccccc2)NC1=O` [Example 109, H-Cys-Phe-Tyr-D-Trp-Lys-Thr-Phe-Cys-NH2] (H-CFY[dW]KTFC-NH2; disulfide 1-8 (inferred)), for which the Ki at human SSTR-5 (setting [3]) worked out at 0.34 nM; at human SSTR-3 (setting [4]), 9.7 nM; at human SSTR-2 (setting [5]) it was 6.19 nM; at human SSTR-1 (setting [6]), 86.9 nM. The “affinity for type 3 (in words)” value at human SSTR-3 was “high affinity”. On human SSTR-2, the “affinity for type 2 (in words)” value is given as “high affinity”. In addition, the ATCC43504 bacteria number with H. pylori ATCC43504 [1] is listed as 1.4 ± 0.5 ×10^5 CFU/mL. For the same compound, the “affinity for type 4 (in words)” value at human SSTR-4 is recorded as “high affinity”.

Regarding `C[C@@H](O)[C@H](NC(=O)[C@H](Cc1ccccc1)NC(=O)[C@@H](NC(=O)[C@H](CCCCN)NC(=O)[C@@H](Cc1c[nH]c2ccccc12)NC(=O)[C@H](Cc1ccccc1)NC(=O)[C@H](Cc1ccccc1)NC(=O)[C@H](N)Cc1ccccc1)[C@@H](C)O)C(N)=O` [Example 114, H-D-Phe-Phe-Phe-D-Trp-Lys-Thr-Phe-Thr-NH2] (H-[dF]FF[dW]KTFT-NH2), at human SSTR-5, the “affinity for type 5 (in words)” value was “high affinity”. For the same compound, at human SSTR-3, the “affinity for type 3 (in words)” value was “high affinity”. Moreover, the ATCC43504 bacteria number in the assay with H. pylori ATCC43504 [1] is recorded as 9.8 ± 2.0 ×10^5 CFU/mL.

Turning to `C[C@@H](O)[C@H](NC(=O)[C@H](Cc1ccccc1)NC(=O)[C@@H](NC(=O)[C@H](CCCCN)NC(=O)[C@@H](Cc1c[nH]c2ccccc12)NC(=O)[C@H](Cc1ccccc1)NC(=O)[C@H](Cc1ccccc1)NC(=O)[C@@H](Cc1ccccc1)NC(=O)CN1CCN(CCO)CC1)[C@@H](C)O)C(N)=O` [Example 118] (X1-[dF]FF[dW]KTFT-NH2), the inhibition constant Ki worked out at 1.01 nM on human SSTR-5; 10.9 nM on human SSTR-3 (read-out: Ki hSSTR-3); 3.23 nM at human SSTR-2 (read-out: Ki hSSTR-2); 47.7 nM on human SSTR-1 (read-out: Ki hSSTR-1); 753 nM on human SSTR-4.

Take `C[C@H](N)C(=O)NCC(=O)N[C@H]1CSSC[C@@H](C(=O)O)NC(=O)[C@H](CO)NC(=O)[C@H]([C@@H](C)O)NC(=O)[C@H](Cc2ccccc2)NC(=O)[C@H]([C@@H](C)O)NC(=O)[C@H](CCCCN)NC(=O)[C@H](Cc2c[nH]c3ccccc23)NC(=O)[C@H](Cc2ccccc2)NC(=O)[C@H](Cc2ccccc2)NC(=O)[C@H](CC(N)=O)NC(=O)[C@H](CCCCN)NC1=O` [somatostatin]: in the assay on H. pylori NCTC11638, the NCTC11638 bacteria number is 1.6±0.2 ×10^6 CFU/mL. Further, in the assay on H. pylori NCTC11638 (NCTC11638, 48 h), the “inhibition of NCTC11638” value came to 90%. Besides, the NCTC11916 bacteria number in the assay on H. pylori NCTC11916 is 2.6±0.2 ×10^6 CFU/mL. For the same compound, the “inhibition of NCTC11916” value in the assay with H. pylori NCTC11916 (NCTC11916, 48 h) is 79%. Also, in the assay on H. pylori ATCC43504 [1], the “decrease of bacteria number / suppression of ATCC43504 proliferation” value was 49% and the “inhibition of ATCC43504 proliferation (in words)” value is listed as “inhibited proliferation of ATCC43504 in a dose-dependent manner”. Also, the “inhibition of H. pylori proliferation by somatostatin” value in the assay with H. pylori ATCC43504 [2] is listed as 88%.
